“And” between values parts separate entries of the source, which are not always exact repeats. Equal entries are not always repeated.
What was measured:
hepatitis C virus [1] = details: with interferon, licensing trials, cited from earlier work
hepatitis C virus [2] = experiment: Study of interferon alone and interferon plus ribavirin for hepatitis C in HIV-infected patients; type: in vivo, human; details: interferon alone group, 3 months, 10 patients
Method: A study of interferon alone and interferon plus ribavirin for hepatitis C in HIV-infected patients was performed. Ten patients received interferon alone and 11 received the combination treatment of interferon alpha and ribavirin. Median liver biopsy fibrosis score for both groups was 2.1. In the interferon alone group, at 3 months, there was no change in HCV RNA, CD4 dropped from a median of 190 to 186 cells/ml and HIV RNA dropped from a median of 1500 copies per ml to less than 400. At the same time point, 3 months, in the combination group, the HCV RNA dropped from 3.2 million to less than about 600 copies/ml. […] The main adverse event was anemia which occurred in 5/21(23.8%). This was treated with erythropoietin 40,000 units weekly when the hemoglobin declined to 10 g/dl. […] This was the first report of this treatment in patients with HIV infection as well as hepatitis C.

[3] = type: in vivo, human
Method: In an open-label, prospective pilot study, 56 subjects with chronic HCV infection were treated with both RBV and IFN-α. Eighteen subjects with anemia (hemoglobin 10 g/dl or […]) and reduced exercise tolerance following IFN-α/RBV initiation were treated with Epoetin alpha (up to 40,000 units per week subcutaneously). […] At the time of epoetin alpha initiation, the mean hemoglobin level declined 25.4% (to 10.6 g/dL) in the group receiving this treatment. […] Two thirds of subjects receiving epoetin alpha reported improved symptoms. […] Fifty-six chronically HCV-infected (≥90 days) subjects who were treated with IFN-α (3 million units TIW) and RBV (1000 mg/d for subjects <75 kg or 1200 mg/d for subjects ≥75 kg) were entered into an open-label, pilot, prospective study at several centers. […] RBV doses were adjusted by treating physicians as clinically indicated throughout the study. Following INF-α/RBV initiation, subjects with new-onset anemia (hemoglobin ≤10 g/dL or ≥2 g/dL decrease in hemoglobin) or a decrease in hemoglobin accompanied by decreased exercise tolerance (providers' impressions) received epoetin alpha (up to 40,000 units per week, subcutaneously). […] After initiation of epoetin alpha therapy, subjects were evaluated at a 2-week interval for 8 weeks and every 4 weeks thereafter for a maximum of 40 weeks. At each visit, laboratory safety parameters were obtained and, for most subjects, health-care providers recorded whether improvement had occurred in symptoms that typically occur as a side-effect of anemia or after therapy with IFN-α/RBV (e.g., flu-like symptoms, fatigue, dyspnea). […] In addition, clinical benefit of epoetin alpha therapy was evaluated by comparing the percent decline in hemoglobin levels from baseline to initiation of epoetin alpha with the percent recovery in these levels by the last visit. Fisher's exact test or the t-test was used to evaluate the significance of differences between groups with respect to demographic characteristics.

[4] = Erythropoietin 40,000 units weekly for ribavirin-induced anemia; type: in vivo, human
Method: A study of interferon alone and interferon plus ribavirin for hepatitis C in HIV-infected patients was performed. Ten patients received interferon alone and 11 received the combination treatment of interferon alpha and ribavirin. Median liver biopsy fibrosis score for both groups was 2.1. In the interferon alone group, at 3 months, there was no change in HCV RNA, CD4 dropped from a median of 190 to 186 cells/ml and HIV RNA dropped from a median of 1500 copies per ml to less than 400. At the same time point, 3 months, in the combination group, the HCV RNA dropped from 3.2 million to less than about 600 copies/ml. […] This was treated with erythropoietin 40,000 units weekly when the hemoglobin declined to 10 g/dl. […] This was the first report of this treatment in patients with HIV infection as well as hepatitis C. […] This was done in both HIV seronegative individuals and HIV seropositive individuals.

[5] = type: in vivo, human; remark: listed apart in the source
Method: Once-weekly recombinant human erythropoietin (epoetin alpha) facilitates optimal ribavirin (RBV) dosing in Hepatitis C virus (HCV)-infected patients receiving Interferon-α-2b (IFN)/RBV combination therapy. RBV dose reduction or discontinuation has been the standard approach to treating hemoglobin (Hb) decreases resulting from IFN/RBV therapy in HCV-infected patients. […] An open-label, randomized, multicenter study was conducted to assess the efficacy and tolerability of once-weekly (QW) epoetin alpha therapy for hemoglobin decreases associated with IFN/RBV therapy and to evaluate the impact of epoetin alpha therapy on RBV dosing. HCV-infected patients who developed hemoglobin levels ≤12 g/dL during the first 24 weeks of combination IFN/RBV therapy (n=60) were randomly assigned to treatment with epoetin alpha (40000 units) subcutaneously once weekly for up to 36 weeks or standard of care (SOC). The primary and secondary efficacy end points were changes from baseline (at Week 16) in hemoglobin level and RBV dose, respectively.

In the case of `NC(=O)c1ncn([C@@H]2O[C@H](CO)[C@@H](O)[C@H]2O)n1` [ribavirin], the “sustained virologic response rate” value (hepatitis C virus [1]; at least 10.6 mg/kg ribavirin) is given as “over 40%” and the “SVR (response) rate” value (hepatitis C virus [1]; less than 10.6 mg/kg ribavirin) is given as 28%.
For IFN-α, the “change in HCV RNA” value (hepatitis C virus [2]) was “no change”.
In the case of “epoetin alpha: recombinant human erythropoietin (r-HuEPO, Epoetin alpha)”, the “mean hemoglobin level at the last study visit” value ([3]; epoetin alpha up to 40,000 units per week s.c., N=18, mean follow-up 25.3 weeks) is reported as 12.7 g/dL and 12.7 ± 1.7 g/dL, the “Dyspnea (%)” value ([3]; human, in vivo) is reported as 80.0% and the “Dyspnea, median duration (wks)” value ([3]; human, in vivo) is reported as 6.6 wks. The “Fatigue (%)” value ([3]; human, in vivo) was 73.3%, the “Fatigue, median duration (wks)” value ([3]; human, in vivo) was 8.2 wks and the Flu-like symptoms ([3]; human, in vivo) was 46.7. For the same compound, the “Flu-like symptoms, median duration (wks)” value ([3]; human, in vivo) was 2.7 wks, the “recovery in mean hemoglobin level after initiation of epoetin alpha” value ([3]; percent recovery by the last visit) was 65.5% and 65.5±56.3% and the “hemoglobin after erythropoietin treatment” value ([4]; begun when hemoglobin declined to 10 g/dl, after a median of 4 weeks, HCV/HIV patients) was 12.7 g/dL. For the same compound, the quality of life ([4]; hemoglobin 11 gr/dl or less, HIV seronegative and seropositive) was “substantial increase in their quality of life”, the “mean hemoglobin level at last available assessment” value ([5]; P<0.05 vs SOC) was 13.8 g/dL and the “mean change in RBV dose at last available assessment” value ([5]; baseline 998 mg/day, P<0.05 vs SOC) was -25 mg/day. The “mean change from baseline hemoglobin level at last available assessment” value ([5]; epoetin alpha 40000 units s.c. once weekly, baseline 11.0 g/dL, P<0.05 vs SOC) was “+2.7 g/dL”, the tolerability ([5]; human, in vivo) was “well tolerated” and the “patients treated with RBV doses greater than 10.6 mg/kg per day” value ([5]; last available assessment, P<0.01 vs SOC) was 77%.
